The supplement of paper PMC11061612

Experiments:
Assay in all cases: Bliss excess, mean over the matrix (fraction); higher = more synergy
PA-1 (Ovarian Carcinoma) = system: PA-1 (Ovarian Carcinoma)
Outline: (§1)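 Bliss excess equals the observed combination effect minus the expected value EA + EB − EA·EB, where EA and EB are the effects of each agent alone. Combination Emax is the second-highest inhibition within the matrix. Inhibition was scaled from CellTiter-Glo 2.0 luminescence, with 0 set by vehicle wells and 1 by blank wells, after 72 hours of two-drug dosing of cells plated in 1536-well plates.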

IGR-37 (Melanoma) = system: IGR-37 (Melanoma)
Outline: as §1

[1] = system: SK-MG-1 (Low Grade Glioma)
Outline: as §1

[2] = system: NCI-H1650 (Lung Adenocarcinoma)
Outline: as §1

[3] = system: CAPAN-2 (Pancreatic Carcinoma)
Outline: as §1

Hs-445 (Non-Cancerous) = system: Hs-445 (Non-Cancerous)
Outline: as §1

[4] = system: NCI-H1581 (Non-Small Cell Lung Carcinoma)
Outline: as §1

[5] = system: ONS-76 (Other Solid Carcinomas)
Outline: as §1

[6] = system: NCI-H2066 (Squamous Cell Lung Carcinoma)
Outline: as §1

[7] = system: A549 (Lung Adenocarcinoma)
Outline: as §1

[8] = system: CAL-29 (Bladder Carcinoma)
Outline: as §1

[9] = system: A3-KAW (B-Cell Non-Hodgkin's Lymphoma)
Outline: as §1

[10] = system: JSC-1 (B-Cell Non-Hodgkin's Lymphoma)
Outline: as §1

[11] = system: MDST8 (Colorectal Carcinoma)
Outline: as §1

[12] = system: NCI-H64 (Small Cell Lung Carcinoma)
Outline: as §1

FU97 (Gastric Carcinoma) = system: FU97 (Gastric Carcinoma)
Outline: as §1

[13] = system: COR-L311 (Small Cell Lung Carcinoma)
Outline: as §1

[14] = system: COLO-320-HSR (Colorectal Carcinoma)
Outline: as §1

[15] = system: NCI-H1693 (Lung Adenocarcinoma)
Outline: as §1

[16] = system: ECC10 (Gastric Carcinoma)
Outline: as §1

Row | SMILES | Bliss excess (PA-1 (Ovarian Carcinoma)) | Bliss excess (IGR-37 (Melanoma)) | Bliss excess [1] | Bliss excess [2] | Bliss excess [3] | Bliss excess (Hs-445 (Non-Cancerous)) | Bliss excess [4] | Bliss excess [5] | Bliss excess [6] | Bliss excess [7] | Bliss excess [8] | Bliss excess [9] | Bliss excess [10] | Bliss excess [11] | Bliss excess [12] | Bliss excess (FU97 (Gastric Carcinoma)) | Bliss excess [13] | Bliss excess [14] | Bliss excess [15] | Bliss excess [16]
1 | Cc1c2c(nn1C)CSCc1cc(n(C)n1)CSc1cc(c3ccccc3c1)OCCCc1c(C(=O)O)n(C)c3c-2c(Cl)ccc13 [AZD5991] + CN(C)CCCOc1ccc(-c2ccc3ncc4c(c3c2)n(C2CCOCC2)c(=O)n4C)cn1 [AZD0156] (first compound max 1 µM, 7x7, partner max 1 µM) | 0.004 | 0.0148 | 0.0058 | -0.0398 | 0.0062 | -0.106 | 0.0383 | -0.0291 | -0.0084 | -0.026 | 0.0308 | -0.0252 | -0.0081 | 0.0114 | -0.0708 | -0.058 | -0.0088 | 0.0531 | -0.0254 | -0.0158
2 | CC1(C)CCC(CN2CCN(c3ccc(C(=O)NS(=O)(=O)c4ccc(NCC5CCOCC5)c([N+](=O)[O-])c4)c(Oc4cnc5[nH]ccc5c4)c3)CC2)=C(c2ccc(Cl)cc2)C1 [Venetoclax] + CCN(CCO)CCCOc1ccc2c(Nc3cc(CC(=O)Nc4cccc(F)c4)[nH]n3)ncnc2c1 [AZD2811] (first compound max 1 µM, 7x7, partner max 1 µM) | 0.0002 | -0.011 | -0.0199 | 0.0046 | -0.0114 | 0.0894 | -0.0024 | -0.0244 | -0.0442 | -0.0668 | 0.0361 | -0.0238 | 0.0485 | -0.0011 | 0.173 | 0.024 | 0.0261 | 0.0052 | 0.0169 | 0.0068
3 | COc1cccc(OCCCN)c1-c1cc(Nc2cnc(C#N)cn2)n[nH]1 [Prexasertib] + CCc1c2c(nc3ccc(O)cc13)-c1cc3c(c(=O)n1C2)COC(=O)[C@]3(O)CC [SN-38] (first compound max 1 µM, 7x7, partner max 0.3 µM) | -0.0364 | -0.0727 | 0.0719 | -0.0339 | -0.0205 | -0.0189 | 0.196 | -0.0961 | 0.0285 | -0.0361 | 0.002 | 0.0247 | -0.0739 | -0.1 | 0.0021 | -0.032 | -0.0058 | 0.115 | 0.0166 | 0.0145
4 | Cc1c2c(nn1C)CSCc1cc(n(C)n1)CSc1cc(c3ccccc3c1)OCCCc1c(C(=O)O)n(C)c3c-2c(Cl)ccc13 [AZD5991] + C[C@@H](Nc1cc(F)cc(F)c1)c1cc(C(=O)N(C)C)cc2c(=O)cc(N3CCOCC3)oc12 [AZD8186] (first compound max 1 µM, 7x7, partner max 3 µM) | 0.049 | 0.038 | -0.0124 | 0.0221 | 0.023 | -0.0177 | -0.0068 | -0.0517 | -0.0445 | 0.01 | 0.0096 | -0.0084 | -0.0289 | -0.0268 | -0.0067 | 0.0594 | -0.0098 | -0.0004 | -0.0461 | 0.024
5 | CCN(CCO)CCCOc1ccc2c(Nc3cc(CC(=O)Nc4cccc(F)c4)[nH]n3)ncnc2c1 [AZD2811] + O=C(c1cc(Cc2n[nH]c(=O)c3ccccc23)ccc1F)N1CCN(C(=O)C2CC2)CC1 [Olaparib] (first compound max 1 µM, 7x7, partner max 10 µM) | 0.0873 | -0.0353 | 0.0331 | -0.025 | -0.0222 | 0.0459 | -0.0058 | -0.0103 | -0.022 | -0.0061 | 0.0378 | 0.0053 | 0.0145 | 0.0271 | 0.0589 | -0.0269 | -0.0088 | -0.0179 | 0.007 | -0.107
6 | COc1cc2c(cc1OCCCCCOc1cc3c(cc1OC)C(=O)N1C=C(C)C[C@H]1C=N3)N=C[C@@H]1CC(C)=CN1C2=O [SG3199] + O=C(c1cc(Cc2n[nH]c(=O)c3ccccc23)ccc1F)N1CCN(C(=O)C2CC2)CC1 [Olaparib] (first compound max 0.001 µM, 7x7, partner max 10 µM) | 0.0131 | -0.0238 | -0.0009 | -0.0575 | -0.0506 | -0.0116 | -0.0322 | -0.0635 | -0.0457 | -0.0226 | -0.0154 | -0.0286 | -0.0344 | -0.0151 | -0.0539 | -0.0513 | 0.0282 | -0.0213 | -0.0209 | -0.0238
7 | COc1cccc(OCCCN)c1-c1cc(Nc2cnc(C#N)cn2)n[nH]1 [Prexasertib] + CN(C)CCCOc1ccc(-c2ccc3ncc4c(c3c2)n(C2CCOCC2)c(=O)n4C)cn1 [AZD0156] (first compound max 1 µM, 7x7, partner max 1 µM) | 0.0031 | 0.0026 | -0.0321 | -0.0451 | 0.0147 | -0.0286 | 0.0112 | -0.0148 | -0.0379 | -0.0276 | -0.0479 | 0.0134 | -0.0111 | -0.0216 | -0.0359 | -0.0321 | -0.0532 | 0.0111 | -0.0349 | 0.0071
